Assay results: publication PMC5855875, “Teixobactin analogues reveal enduracididine to be non-essential for highly potent antibacterial activity and lipid II binding” (Chemical Science, 2017)
In brackets after ≈: the same amount, converted by molar mass. Bridge positions count the residues as written; N and C are the ends. Square brackets hold non-standard residues; d marks the D form. Peptide text beside a SMILES is read from it. d(aIle) = CC[C@H](C)[C@@H](N)C(=O)O; dNMeF = CN[C@H](Cc1ccccc1)C(=O)O

Tests used:
[1] = test system: VRE 1: VRE ATCC 700802; experiment: organism not typed; conditions: for MIC (with polysorbate 80): VRE 1, MHB containing polysorbate 80 (0.002%, v/v), 37 °C, 24 h
Experimental: (§1) VIII. MIC testing (extended panel)
(§2) Bacterial cultures were grown overnight i n Mueller-Hinton Agar (MHA) plates and adjusted to a final concentration of 10 5 – 106 CFU/ml. 100 µl of inoculum in Meuller -Hinton broth (MHB) was mixed with equal volume of peptides (dissolved in MHB) at 2x their concentration in a 96 well plate. In parallel experiments, MIC values were determined in the media containing polysorbate 80 (0 .002%, v/v) to […]
(§3) prevent non-specific adsorption of the peptides to plastic surfaces. The final peptides concentrations […]
(§4) Positive and negative controls contained 200 µl of inoculum without any peptide dissolved in broth, respectively. The 96 well plates were then incubated at 37 °C for 24 h. […]
(§5) 80. Strain information: MRSA 1: MRSA ATCC 700699, MRSA 2: MRSA DR 42412 (sputum), MRSA
(§6) 3: MRSA DM21455 (eye). […] Staphylococcus aureus ATCC

[2] = test system: VRE 2: VRE ATCC 29212; experiment: organism not typed; conditions: for MIC (with polysorbate 80): VRE 2, MHB containing polysorbate 80 (0.002%, v/v), 37 °C, 24 h
Experimental: as §1, §2, §3, §4, §5, §6

[3] = test system: MRSA ATCC 33591; experiment: microbe, parasite or virus in culture
Experimental: (§7) were grown in Mueller Hinton broth (Oxoid) in triplicate. All incubations were at 37°C. Dilutions were carried out in triplicate. 100 µl of autoclaved Mueller Hinton broth was added to wells 2-12 in a 96-well plate. 200 µl of the peptide was added to well one at a concentration of 256 µg/mL. 100µl of peptide in well one was taken up and pipetted into well two. The mixture was then mixed via pipetting before 100µl was taken up and pipetted into well three. This process was repeated up to well 11. Once […]
(§8) peptide present. Thus, the concentrations (in µg/mL) were: 256, 128, 64, 32, 16, 8, 4, 2, 1, 0.5, 0.25 and no peptide present. Each well was then inoculated with 100µl of bacteria that had been diluted to an […]
(§9) This was repeated three times. The 96-well plates were then incubated at 37°C for 24 hours. The MIC was determined to be the lowest concentration at which there was no growth visible. […]
(§10) was repeated at an altered initial concentration of 64 µg/ml. Therefore, the new concentrations for MIC […]
as §1, §2

[4] = Lipid II TLC binding assay; conditions: peptide : lipid II 2 : 1; 50 mM Tris/HCl, pH 7.5, 30 min, room temperature; three independent experiments
Experimental: X. Complex formation of teixobactin with lipid II and geranyl pyrophosphate Complex formation of teixobactin analogues 8 (Ala10-teixobactin) and 16 (Arg10-teixobactin) with lipid II and geranyl pyrophosphate was performed using TLC as described previously.7 Binding of teixobactin to lipid II and geranyl pyrophosphate was analysed by incubating 30 µL of 2 nmol of each precursor with 2 or 4 nmoles of teixobactin in 50 mM Tris/HCl, pH 7.5, for 30 min at room temperature. Complex formation was analysed by extracting unbound precursors from the reaction mixture with 30 µL n- butanol/6M pyridine acetate (pH 4.2) (2:1; vol/vol) followed by TLC analysis of the organic layer using chloroform/methanol/water/ammonia (88:48:10:1, v/v/v/v) as the solvent and detection of lipid/phosphate containing precursors by phosphomolybdic acid staining. The TLC figures represent the results obtained through thr ee independent experiments.
Figure S76 : Binding of teixobactin analogues 8 (Ala10-teixobactin ) and 16 (Arg10-teixobactin) with lipid II using the protocols described in literature .7 Partial binding is observed when the ratio of lipid II to the analogue is 1:1 (indicated by lighter spots on the TLC) and complete binding is observed when the ratio of lipid II to the analogue is 1:2 in case of analogue 16 and 1:4 in case of analogue 8 (indicated […]
(§11) (also on this page, place not known: polyso rbate vancomycin , concentr ation 80 . wer e µ l (10 1-105 10 10 previously n - TL C three S76: (Ala10-teixobactin) literature.7 Lipid II Lipid II: Compound 8 = 1:1 Lipid II: Compound 16 = 1:1 Lipid II: Compound 8 = 1:2 Lipid II: Compound 16 = 1:2 Lipid II: Compound 8 = 1:4)

[5] = test system: M. smegmatis ATCC 607; experiment: microbe, parasite or virus in culture
Experimental: as §7, §8, §9, §10
Middlebrook 7H9 broth (SIGMA) supplemented to 5% Middlebrook ADC (SIGMA) growth

[6] = test system: MRSA 3: MRSA DM21455 (eye); experiment: microbe, parasite or virus in culture; conditions: for MIC (with polysorbate 80): MRSA 3, MHB containing polysorbate 80 (0.002%, v/v)
Experimental: as §1, §2, §3
(§12) Positive and negative controls contained 200 µl of inoculum without any peptide dissolved in broth, respectively. The 96 well plates were then incubated at 37 °C for 24 h.
(§13) All the experiments were performed in two independent duplicates and the MIC was determined as the […]
(§14) Minimum bactericidal concentration
(§15) The lowest concentration in which no visible colonies could be detected was taken as the MBC.
as §5, §6

[7] = test system: Staphylococcus aureus ATCC 29213; experiment: microbe, parasite or virus in culture; conditions: for MIC (without polysorbate 80): ATCC 29213, 24 h; for MIC (with polysorbate 80): S. aureus ATCC 29213, MHB containing polysorbate 80 (0.002%, v/v); for MIC (with polysorbate 80) / MBC: 37 °C, 24 h; for MBC: Staphylococcus aureus ATCC 29213, plated on MHA
Experimental: as §1, §2, §3, §12, §13, §14, §15, §5, §6

[8] = test system: MRSA 1: MRSA ATCC 700699; experiment: microbe, parasite or virus in culture; conditions: for MBC: plated on MHA; for MBC / MIC (with polysorbate 80): 24 h; for MIC (with polysorbate 80): MRSA 1, MHB containing polysorbate 80 (0.002%, v/v), two independent duplicates
Experimental: as §1, §2, §3, §12, §13, §14, §15, §5, §6

[9] = test system: MRSA 2: MRSA DR 42412 (sputum); experiment: microbe, parasite or virus in culture; conditions: for MIC (with polysorbate 80): MRSA 2, MHB containing polysorbate 80 (0.002%, v/v)
Experimental: as §1, §2, §3, §4, §5, §6

[10] = test system: rabbit erythrocytes; format: cell-based; conditions: rabbit erythrocytes 4% v/v; peptides 0.195 – 250 µg/ml; 37°C, 1 h; haemoglobin release spectrophotometrically; average of triplicate experiments
Experimental: Fig. 5 Hemolytic activity of teixobactin analogues 12 and 13 for rabbit erythrocytes. The blood cells were exposed to various concentrations of peptides for 1 h and the release of haemoglobin was determined spectrophotometrically. Each value represents an average of triplicate experiments.
Cytotoxicity assay by Formazan bioreduction
Medium (DMEM) supplemented with 10% serum. The cells were repeatedly rinsed with Hank’s
in HBSS 24 hrs post-seeding.
were incubated for 3 hrs at 37°C.
XII. Haemolytic Assay Protocol
Hemolytic assay was performed

[11] = test system: MRSA DM21455; experiment: Time-kill kinetics; format: cell-based, Methicillin-resistant Staphylococcus aureus; conditions: 0.5 μg mL^–1; MHB containing 0.002% v/v polysorbate 80; 37 °C; average of two independent experiments
Experimental: IX. Time-dependent killing of bacteria by teixobactin analogues 12 and 13 Time-kill kinetics against MRSA DM21455 strains (clinical isolates from patients) was carried out in MHB. Cultures were grown overnight in MHA plates and adjusted to a final inoculum of 10^5 – 10^6 CFU/ml in MHB (containing 0.002% v/v, polysorbate 80) with teixobactin analogues 12 and 13 maintained at a final concentration of 0.5 µg/ml. For vancomycin, the concentration was varied from 0.5 – 16 µg/ml without polysorbate 80. The tubes were then incubated at 37 °C. 100 µl of cell suspension was withdrawn at various time points (0, 2, 4, 8, 24 h), serially diluted (101-105 fold dilutions) and plated onto a MHA plates and incubated for 24 h at 37 °C.
Colonies were then enumerated […]. Colony counting too numerous to count (>300 colonies) was taken as 1010 CFU. Average values from two independent experiments are reported. […]
as §11

[12] = MRSA 1 (MRSA ATCC 700699), 37 °C

Row | Molecule | MIC (without polysorbate 80) ([1]; ATCC 700802, 24 h) [µg/mL] | MIC (with polysorbate 80) [1] [µg/mL] | MIC (without polysorbate 80) ([2]; ATCC 29212, 24 h) [µg/mL] | MIC (with polysorbate 80) [2] [µg/mL] | lipid II spot on TLC [4] | MIC (without polysorbate 80) ([6]; 3: DM21455 (eye, 24 h)) [µg/mL] | MIC (with polysorbate 80) ([6]; 37 °C, 24 h) [µg/mL] | MIC (without polysorbate 80) [7] [µg/mL] | MIC (with polysorbate 80) [7] [µg/mL] | MBC [7] [μg mL^–1] | MIC (without polysorbate 80) ([8]; ATCC 700699, 24 h) [µg/mL] | MBC [8, 12] [μg mL^–1] | MIC (with polysorbate 80) ([8]; 37 °C) [µg/mL] | MIC (without polysorbate 80) ([9]; 2: DR 42412 (sputum, 24 h)) [µg/mL] | MIC (with polysorbate 80) ([9]; 37 °C, 24 h) [µg/mL] | other results
1 | CC[C@H](C)[C@H](NC(=O)[C@@H](Cc1ccccc1)NC)C(=O)N[C@@H](CO)C(=O)N[C@H](CCC(N)=O)C(=O)N[C@@H](C(=O)N[C@H](C(=O)N[C@@H](CO)C(=O)N[C@H]1C(=O)N[C@@H](C)C(=O)N[C@@H](CCCNC(=N)N)C(=O)N[C@@H]([C@@H](C)CC)C(=O)O[C@H]1C)[C@@H](C)CC)[C@@H](C)CC [Compound 16, Arg10-teixobactin] | 4 (≈ 3.21 µM) | 2 (≈ 1.61 µM) | 4 (≈ 3.21 µM) | 2 (≈ 1.61 µM) | complete disappearance of the lipid II spot | 4 (≈ 3.21 µM) | 0.5 (≈ 0.402 µM) | 2 (≈ 1.61 µM) | 0.25 (≈ 0.201 µM) | 1 | 4 (≈ 3.21 µM) | 2 | 1 (≈ 0.804 µM) | 2 (≈ 1.61 µM) | 0.125 (≈ 0.1 µM) | MIC ([1]; VRE 1 (Enterococcus faecalis VRE ATCC 700802), Mueller Hinton broth (Table 2)): 2 μg mL^–1; MIC ([2]; VRE 2 (Enterococcus faecalis VRE ATCC 29212), Mueller Hinton broth (Table 2)): 2 μg mL^–1; MIC ([3]; MRSA ATCC 33591, Mueller Hinton broth (Oxoid), peptides in DMSO containing 0.002% polysorbate 80, 37°C, 24 h, triplicate): 2 μg mL^–1; MIC ([5]; M. smegmatis ATCC 607, Middlebrook 7H9 broth with 5% ADC, 37°C, 140RPM, reading after 72 hours): 1–2 μg mL^–1; MBC ([6]; MRSA 3 (MRSA DM21455), plated on MHA, 37 °C, 24 h): 1 μg mL^–1; MIC ([6]; MRSA 3 (MRSA DM21455, eye, clinical isolate), Mueller Hinton broth, 37 °C, 24 h (Table 2)): 0.5 μg mL^–1; MIC ([8]; MRSA 1 (MRSA ATCC 700699), Mueller Hinton broth, 37 °C, 24 h (Table 2)): 1 μg mL^–1; MBC ([9]; MRSA 2 (MRSA DR 42412), plated on MHA, 37 °C, 24 h): 0.5 μg mL^–1; MIC ([9]; MRSA 2 (MRSA DR 42412, sputum, clinical isolate), Mueller Hinton broth, 37 °C, 24 h (Table 2)): 0.125 μg mL^–1
2 | melittin | – | – | – | – | – | – | – | – | – | – | – | – | – | – | – | haemolytic activity [10]: substantial haemolytic activity
3 | CC[C@H](C)[C@H](NC(=O)[C@@H](Cc1ccccc1)NC)C(=O)N[C@@H](CO)C(=O)N[C@H](CCC(N)=O)C(=O)N[C@@H](C(=O)N[C@H](C(=O)N[C@@H](CO)C(=O)N[C@H]1C(=O)N[C@@H](C)C(=O)N[C@@H](CC(C)C)C(=O)N[C@@H]([C@@H](C)CC)C(=O)O[C@H]1C)[C@@H](C)CC)[C@@H](C)CC [Compound 13, Leu10-teixobactin] (H-[dNMeF]IS[dQ][d(aIle)]IS[dT]ALI; ester 8-C) | 2 (≈ 1.66 µM) | 0.25 (≈ 0.208 µM) | 2 (≈ 1.66 µM) | 0.25 (≈ 0.208 µM) | complete disappearance of the lipid II spot | 2 (≈ 1.66 µM) | ≤ 0.0625 | 1 (≈ 0.832 µM) | ≤ 0.0625 | 0.125 | 2 (≈ 1.66 µM) | 2 | 0.25 (≈ 0.208 µM) | 2 (≈ 1.66 µM) | ≤ 0.0625 | time to complete bactericidal activity [11]: ≤ 8 h; MIC ([1]; ATCC 700802, 24 h): 0.25 μg mL^–1; MIC ([2]; ATCC 29212, 24 h): 0.25 μg mL^–1; MIC ([3]; ATCC 33591, 24 h): 0.25 μg mL^–1; MIC ([5]; ATCC 607, 72 h): ~1 μg mL^–1; MIC ([6]; 3: DM21455 (eye, 24 h)): ≤0.0625 μg mL^–1; MIC ([8]; ATCC 700699, 24 h): 0.25 μg mL^–1; MIC ([9]; 2: DR 42412 (sputum, 24 h)): ≤0.0625 μg mL^–1
